Laboratory results reported in ChEMBL document CHEMBL1201861, “Genomics of Drug Sensitity in Cancer screening data, Wellcome Trust Sanger Institute”.

What was measured:
Assay in all cases: cells
LB771-HNC = format: functional, cell-based, Homo sapiens; conditions: Homo sapiens, LB771-HNC;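 also: growth inhibition of LB771-HNC human cells, read out with a cell viability assay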
VMRC-RCZ = format: functional, cell-based; conditions: Homo sapiens;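 also: growth inhibition measured with a cell viability assay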
Description: SANGER: Inhibition of human VMRC-RCZ cell growth in a cell viability assay.

HH = format: functional, cell-based; conditions: Homo sapiens
Description: SANGER: Inhibition of human HH cell growth in a cell viability assay.

KOSC-2 = format: functional, cell-based, Homo sapiens; conditions: Homo sapiens, KOSC-2;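 also: growth inhibition of KOSC-2 cells, read out by a cell viability assay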
LB373-MEL-D = format: functional, cell-based, Homo sapiens; conditions: Homo sapiens, LB373-MEL-D;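 also: growth inhibition of the cell line, read out in a cell viability assay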
Description: SANGER: Inhibition of human LB373-MEL-D cell growth in a cell viability assay.

HC-1 = format: functional, cell-based; conditions: Homo sapiens;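 also: growth inhibition of HC-1 cells measured by a cell viability assay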
Description: SANGER: Inhibition of human HC-1 cell growth in a cell viability assay.

RH-1 = format: functional, cell-based, Homo sapiens; conditions: Homo sapiens, RH-1;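 also: growth inhibition of human RH-1 cells, read out with a cell viability assay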
SK-PN-DW = format: functional, cell-based; conditions: Homo sapiens;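 also: growth inhibition measured with a viability assay on these cells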
Description: SANGER: Inhibition of human SK-PN-DW cell growth in a cell viability assay.

NB5 = format: functional, cell-based, Homo sapiens; conditions: Homo sapiens, NB5;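 also: growth inhibition of NB5 cells, read out as cell viability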
Description: SANGER: Inhibition of human NB5 cell growth in a cell viability assay.

LK-2 = format: functional, cell-based, Homo sapiens; conditions: Homo sapiens, LK-2;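 also: growth inhibition of LK-2 cells, read out with a viability assay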
Description: SANGER: Inhibition of human LK-2 cell growth in a cell viability assay.

Ramos-2G6-4C10 = format: functional, cell-based; conditions: Homo sapiens;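 also: growth inhibition of the cell line, measured by a cell viability read-out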
Description: SANGER: Inhibition of human Ramos-2G6-4C10 cell growth in a cell viability assay.

HCC1569 = format: functional, cell-based, Homo sapiens; conditions: Homo sapiens, HCC1569;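 also: growth inhibition of human HCC1569 cells, read out with a cell viability assay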
Description: SANGER: Inhibition of human HCC1569 cell growth in a cell viability assay.

HCC70 = format: functional, cell-based, Homo sapiens; conditions: Homo sapiens, HCC70;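 also: cell viability assay measuring how strongly the compound suppresses proliferation of HCC70 cells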
Description: SANGER: Inhibition of human HCC70 cell growth in a cell viability assay.

DMS-273 = format: functional, cell-based, Homo sapiens; conditions: Homo sapiens, DMS-273
Description: SANGER: Inhibition of human DMS-273 cell growth in a cell viability assay.

ES4 = format: functional, cell-based, Homo sapiens; conditions: Homo sapiens, ES4;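 also: growth inhibition of human ES4 cells, read out by a cell viability assay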
Description: SANGER: Inhibition of human ES4 cell growth in a cell viability assay.

SK-OV-3 = format: functional, cell-based, Homo sapiens; conditions: Homo sapiens, SK-OV-3;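 also: growth inhibition of SK-OV-3 human cells, read out with a cell viability assay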
Description: SANGER: Inhibition of human SK-OV-3 cell growth in a cell viability assay.

ACN = format: functional, cell-based, Homo sapiens; conditions: Homo sapiens, ACN;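 also: growth inhibition of the human ACN cell line, read out via cell viability testing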
Description: SANGER: Inhibition of human ACN cell growth in a cell viability assay.

D283 Med = format: functional, cell-based, Homo sapiens; conditions: Homo sapiens, D283 Med
Description: SANGER: Inhibition of human D-283MED cell growth in a cell viability assay.

BE-13 = format: functional, cell-based; conditions: Homo sapiens;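 also: growth inhibition of human BE-13 cells, measured with a cell viability assay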
Description: SANGER: Inhibition of human BE-13 cell growth in a cell viability assay.

ETK-1 = format: functional, cell-based, Homo sapiens; conditions: Homo sapiens, ETK-1;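 also: growth inhibition of human ETK-1 cells, read out with a cell viability assay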
Description: SANGER: Inhibition of human ETK-1 cell growth in a cell viability assay.

NUGC-3 = format: functional, cell-based, Homo sapiens; conditions: Homo sapiens, NUGC-3;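 also: growth inhibition of human NUGC-3 cells, read out with a cell viability assay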
Description: SANGER: Inhibition of human NUGC-3 cell growth in a cell viability assay.

TYK-nu = format: functional, cell-based, Homo sapiens; conditions: Homo sapiens, TYK-nu;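 also: growth inhibition of human TYK-nu cells, read out by a cell viability assay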
Description: SANGER: Inhibition of human TYK-nu cell growth in a cell viability assay.

A2780 = format: functional, cell-based, Homo sapiens; conditions: Homo sapiens, A2780;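 also: growth inhibition of A2780 cells, read out with a cell viability assay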
Description: SANGER: Inhibition of human A2780 cell growth in a cell viability assay.

NCI-H1563 = format: functional, cell-based, Homo sapiens; conditions: Homo sapiens, NCI-H1563;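 also: growth inhibition of human NCI-H1563 cells, read out with a cell viability assay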
Description: SANGER: Inhibition of human NCI-H1563 cell growth in a cell viability assay.

SAS = format: functional, cell-based, Homo sapiens; conditions: Homo sapiens, SAS;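 also: growth inhibition of SAS cells, read out with a cell viability assay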
GOTO = format: functional, cell-based, Homo sapiens; conditions: Homo sapiens, GOTO;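 also: growth inhibition of GOTO cells, read out by a cell viability assay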
Description: SANGER: Inhibition of human GOTO cell growth in a cell viability assay.

CAMA-1 = format: functional, cell-based, Homo sapiens; conditions: Homo sapiens, CAMA-1;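 also: growth inhibition of CAMA-1 cells, read out with a cell viability assay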
Description: SANGER: Inhibition of human CAMA-1 cell growth in a cell viability assay.

U2OS = format: functional, cell-based, Homo sapiens, U-2-OS; conditions: Homo sapiens, U2OS;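 also: growth inhibition of human U-2-OS cells, determined with a cell viability assay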
Description: SANGER: Inhibition of human U-2-OS cell growth in a cell viability assay.

TGBC24TKB = format: functional, cell-based, Homo sapiens; conditions: Homo sapiens, TGBC24TKB;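 also: growth inhibition of human TGBC24TKB cells, read out with a cell viability assay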
Description: SANGER: Inhibition of human TGBC24TKB cell growth in a cell viability assay.

EFO-27 = format: functional, cell-based, Homo sapiens; conditions: Homo sapiens, EFO-27;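 also: growth inhibition of EFO-27 cells, read out with a cell viability assay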
Description: SANGER: Inhibition of human EFO-27 cell growth in a cell viability assay.

HCC2157 = format: functional, cell-based; conditions: Homo sapiens;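 also: growth inhibition of the cancer cell line, read out as cell viability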
Description: SANGER: Inhibition of human HCC2157 cell growth in a cell viability assay.

Capan-2 = format: functional, cell-based, Homo sapiens; conditions: Homo sapiens, Capan-2;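 also: Capan-2 cell growth inhibition, read out with a viability assay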
MV4-11 = format: functional, cell-based, MV-4-11; conditions: Homo sapiens;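 also: cell viability readout measuring growth inhibition of human MV-4-11 cells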
Description: SANGER: Inhibition of human MV-4-11 cell growth in a cell viability assay.

MKN-45 = format: functional, cell-based, Homo sapiens; conditions: Homo sapiens, MKN-45;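 also: growth inhibition of human MKN-45 cells, measured with a cell viability assay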
SCC-4 = format: functional, cell-based, Homo sapiens; conditions: Homo sapiens, SCC-4;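 also: growth inhibition of human SCC-4 cells, read out as cell viability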
Description: SANGER: Inhibition of human SCC-4 cell growth in a cell viability assay.

BHT-101 = format: functional, cell-based, Homo sapiens; conditions: Homo sapiens, BHT-101
TE-6 = format: functional, cell-based, Homo sapiens; conditions: Homo sapiens, TE-6;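 also: growth inhibition of TE-6 cells, read out with a cell viability assay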
Description: SANGER: Inhibition of human TE-6 cell growth in a cell viability assay.

A3-KAW = format: functional, cell-based; conditions: Homo sapiens;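 also: growth inhibition of human A3-KAW cells, read out with a cell viability assay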
Description: SANGER: Inhibition of human A3-KAW cell growth in a cell viability assay.

NCI-H2126 = format: functional, cell-based, Homo sapiens; conditions: Homo sapiens, NCI-H2126;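 also: growth inhibition of the cancer cell line, determined with a cell viability readout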
Description: SANGER: Inhibition of human NCI-H2126 cell growth in a cell viability assay.

NB12 = format: functional, cell-based, Homo sapiens; conditions: Homo sapiens, NB12;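 also: growth inhibition of human NB12 cells, read out by a cell viability assay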
Description: SANGER: Inhibition of human NB12 cell growth in a cell viability assay.

Ca-Ski = format: functional, cell-based; conditions: Homo sapiens;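 also: cell viability assay measuring inhibition of Ca-Ski cell growth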
Description: SANGER: Inhibition of human Ca-Ski cell growth in a cell viability assay.

DBTRG-05MG = format: functional, cell-based, Homo sapiens; conditions: Homo sapiens, DBTRG-05MG;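 also: cell viability assay measuring growth inhibition of human DBTRG-05MG cells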
Description: SANGER: Inhibition of human DBTRG-05MG cell growth in a cell viability assay.

KYSE-450 = format: functional, cell-based; conditions: Homo sapiens;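 also: cell growth inhibition measured by a viability assay in human KYSE-450 cells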
Description: SANGER: Inhibition of human KYSE-450 cell growth in a cell viability assay.

ES5 = format: functional, cell-based, Homo sapiens; conditions: Homo sapiens, ES5;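 also: growth inhibition of human ES5 cells, read out by a cell viability assay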
TE-11 = format: functional, cell-based, Homo sapiens; conditions: Homo sapiens, TE-11;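 also: growth inhibition of human TE-11 cells, read out by a cell viability assay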
Description: SANGER: Inhibition of human TE-11 cell growth in a cell viability assay.

WM-115 = format: functional, cell-based, Homo sapiens; conditions: Homo sapiens, WM-115
Description: SANGER: Inhibition of human WM-115 cell growth in a cell viability assay.

NH-12 = format: functional, cell-based, Homo sapiens; conditions: Homo sapiens, NH-12;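 also: growth inhibition of NH-12 cells, read out with a cell viability assay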
Description: SANGER: Inhibition of human NH-12 cell growth in a cell viability assay.

DoTc2-4510 = format: functional, cell-based, Homo sapiens; conditions: Homo sapiens, DoTc2-4510
PANC-08-13 = format: functional, cell-based, Homo sapiens; conditions: Homo sapiens, PANC-08-13;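 also: cell growth inhibition, measured with a cell viability assay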
Description: SANGER: Inhibition of human PANC-08-13 cell growth in a cell viability assay.

NCI-H520 = format: functional, cell-based, Homo sapiens; conditions: Homo sapiens, NCI-H520;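 also: growth inhibition of NCI-H520 cells, measured by a cell viability assay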
Description: SANGER: Inhibition of human NCI-H520 cell growth in a cell viability assay.

COLO-829 = format: functional, cell-based, Homo sapiens; conditions: Homo sapiens, COLO-829
Description: SANGER: Inhibition of human COLO-829 cell growth in a cell viability assay.

`C=CCc1cccc(/C=N/NC(=O)CN2CCN(Cc3ccccc3)CC2)c1O` [PAC-1] was tested, and the IC50 (LB771-HNC) was > 2.56 µM, the IC50 (VMRC-RCZ) was > 2.56 µM and the IC50 (HH) was > 2.56 µM. The IC50 (KOSC-2) was > 2.56 µM, the IC50 (LB373-MEL-D) was > 2.56 µM and the IC50 (HC-1) was 1860 nM. The IC50 (RH-1) was > 2.56 µM, the IC50 (SK-PN-DW) was > 2.56 µM and the IC50 (NB5) was > 2.56 µM. The IC50 (LK-2) was > 2560 nM, the IC50 (Ramos-2G6-4C10) was > 2.56 µM and the IC50 (HCC1569) was > 2.56 µM. The IC50 (HCC70) was > 2.56 µM, the IC50 (DMS-273) was > 2.56 µM and the IC50 (ES4) was > 2.56 µM. The IC50 (SK-OV-3) was 1660 nM, the IC50 (ACN) was 1790 nM and the IC50 (D283 Med) was > 2.56 µM. The IC50 (BE-13) was > 2.56 µM, the IC50 (ETK-1) was 2480 nM and the IC50 (NUGC-3) was > 2.56 µM. For the same molecule, the IC50 (TYK-nu) was > 2.56 µM, the IC50 (A2780) was > 2.56 µM and the IC50 (NCI-H1563) was > 2.56 µM. For the same molecule, the IC50 (SAS) was > 2.56 µM, the IC50 (GOTO) was > 2.56 µM and the IC50 (CAMA-1) was > 2.56 µM. For the same molecule, the IC50 (U2OS) was > 2.56 µM, the IC50 (TGBC24TKB) was > 2.56 µM and the IC50 (EFO-27) was > 2.56 µM. The IC50 (HCC2157) was > 2.56 µM, the IC50 (Capan-2) was > 2.56 µM and the IC50 (MV4-11) was > 2560 nM. The IC50 (MKN-45) was > 2.56 µM, the IC50 (SCC-4) was > 2.56 µM and the IC50 (BHT-101) was > 2.56 µM. For the same molecule, the IC50 (TE-6) was > 2.56 µM, the IC50 (A3-KAW) was 1930 nM and the IC50 (NCI-H2126) was > 2.56 µM. The IC50 (NB12) was > 2.56 µM, the IC50 (Ca-Ski) was > 2.56 µM and the IC50 (DBTRG-05MG) was > 2.56 µM. For the same molecule, the IC50 (KYSE-450) was > 2.56 µM, the IC50 (ES5) was > 2.56 µM and the IC50 (TE-11) was > 2.56 µM. For the same molecule, the IC50 (WM-115) was > 2.56 µM, the IC50 (NH-12) was 987 nM and the IC50 (DoTc2-4510) was > 2.56 µM. For the same molecule, the IC50 (PANC-08-13) was > 2.56 µM, the IC50 (NCI-H520) was > 2.56 µM and the IC50 (COLO-829) was > 2.56 µM.

In the case of `Cc1ccc(Nc2nccc(N(C)c3ccc4c(C)n(C)nc4c3)n2)cc1S(N)(=O)=O` [PAZOPANIB], the IC50 (LB771-HNC) is reported as > 8 µM, the IC50 (VMRC-RCZ) is reported as > 8 µM and the IC50 (HH) is reported as > 8 µM. The IC50 (KOSC-2) was > 8 µM, the IC50 (LB373-MEL-D) was > 8 µM and the IC50 (HC-1) was > 8000 nM. The IC50 (RH-1) was > 8 µM, the IC50 (SK-PN-DW) was > 8 µM and the IC50 (NB5) was > 8 µM. For the same molecule, the IC50 (LK-2) was 2650 nM, the IC50 (Ramos-2G6-4C10) was > 8 µM and the IC50 (HCC1569) was > 8 µM. The IC50 (HCC70) was > 8 µM, the IC50 (DMS-273) was 4.96 µM and the IC50 (ES4) was > 8 µM. For the same molecule, the IC50 (SK-OV-3) was > 8000 nM, the IC50 (ACN) was > 8000 nM and the IC50 (D283 Med) was > 8 µM. For the same molecule, the IC50 (BE-13) was > 8 µM, the IC50 (ETK-1) was > 8000 nM and the IC50 (NUGC-3) was > 8 µM. For the same molecule, the IC50 (TYK-nu) was > 8 µM, the IC50 (A2780) was > 8 µM and the IC50 (NCI-H1563) was > 8 µM. The IC50 (SAS) was > 8 µM, the IC50 (GOTO) was > 8 µM and the IC50 (CAMA-1) was > 8 µM. The IC50 (U2OS) was > 8 µM, the IC50 (TGBC24TKB) was > 8 µM and the IC50 (EFO-27) was > 8 µM. For the same molecule, the IC50 (HCC2157) was > 8 µM, the IC50 (Capan-2) was > 8 µM and the IC50 (MV4-11) was 1350 nM. The IC50 (MKN-45) was > 8 µM, the IC50 (SCC-4) was > 8 µM and the IC50 (BHT-101) was > 8 µM. For the same molecule, the IC50 (TE-6) was > 8 µM, the IC50 (A3-KAW) was > 8000 nM and the IC50 (NCI-H2126) was > 8 µM. The IC50 (NB12) was > 8 µM, the IC50 (Ca-Ski) was > 8 µM and the IC50 (DBTRG-05MG) was > 8 µM. The IC50 (KYSE-450) was > 8 µM, the IC50 (ES5) was > 8 µM and the IC50 (TE-11) was > 8 µM. For the same molecule, the IC50 (WM-115) was 5.76 µM, the IC50 (NH-12) was > 8000 nM and the IC50 (DoTc2-4510) was > 8 µM. For the same molecule, the IC50 (PANC-08-13) was > 8 µM, the IC50 (NCI-H520) was 5.73 µM and the IC50 (COLO-829) was > 8 µM.
